{"source": "patent US9434759B1", "about": "“Cationic steroidal antimicrobial compounds and methods of manufacturing such compounds” (BRIGHAM YOUNG UNIVERSITY, priority 2015, dated 2016)", "tested_on": "Radiation Induced Oral Mucositis", "experiment": "Syrian Hamster Model Radiation Induced Oral Mucositis Study", "assay_type": "in vivo", "conditions": "40 Gy radiation Day 0", "procedure": "Various CSA compounds were screened to determine and compare therapeutic effect on oral mucositis. The test was conducted according to a Syrian Hamster Model Radiation Induced Oral Mucositis Study Design as in Table 1. [table] The objective of the study was to identify compounds that can maintain oral mucositis score below 3 in hamster model according to the scoring system in Table 2. [table]", "data": [{"smiles": "CCCCCCCCNC(=O)CC[C@@H](C)[C@H]1CC[C@H]2[C@@H]3[C@H](OCCCN)C[C@@H]4C[C@H](OCCCN)CC[C@]4(C)[C@H]3C[C@H](OCCCN)[C@]12C", "note": "[CSA-192]", "values": [{"measurement": "reduction in oral mucositis (percent of animal days with mucositis, FIG. 2)", "setting": "topical T.I.D. Day -1 to 28, 300 or 1000 ppm, mucositis evaluated Day 6 to 28", "value": "greater than 90%"}, {"measurement": "oral mucositis severity scores (FIG. 3)", "setting": "topical T.I.D. Day -1 to 28, score 0-5 every 2 days, Day 6 to 28", "value": "strongest and longest lasting reduction in oral mucositis"}]}]}
